# Results: patent US12214039B2, “Systems and methods for treatments of an eye with a photosensitizer” (Avedro, Inc., priority 2015, dated 2025)
# Entries after “also recorded” stand apart in the source; their conditions may differ.
# Columns and labels:
# [1] = single surfactant; cited from earlier work
# [2] = tested on: pig eyes with intact epithelium; assay: Relative fluorescence (F/Fo) of cross-linked corneal flaps, surfactants in riboflavin solution (Study 4)
# Protocol: Pig eyes shipped overnight on ice from an abattoir (SiouxPreme, Sioux City, IA) were rinsed in saline. The eyes with intact epithelium were soaked with one of the test solutions below for 20 minutes in an incubator set at 37° C. by using a rubber ring to hold the solution on top.
# For a Group A of the pig eyes, the following riboflavin formulations were used: • (a1) 0.25% riboflavin solution containing BAC (PARACEL™, Avedro, Inc., Waltham, MA); • (a2) 0.1% w.v. riboflavin solution containing saline (PHOTREXA ZD™ Avedro, Inc., Waltham, MA) with added riboflavin to match the riboflavin content (0.25%) in solution (a1); • (a3) solution (a2) with 1% Polidocanol; • (a4) solution (a2) with 5% Polidocanol; and • (a5) solution (a2) with 10% Polidocanol.
# The epitheliums of eyes in Group A were removed with a dull blade after the eyes were soaked in one of the solutions and irradiated pan-corneally on air with a top hat beam (3% root mean square) for 4 minutes with 365-nm light source (UV LED NCSU033B[T]; Nichia Co., Tokushima, Japan) at a chosen irradiance of 30 mW/cm^2 which was measured with a power sensor (model PD-300-UV; Ophir, Inc., Jerusalem, Israel) at the corneal surface. Corneal flaps (approximately 200 μm thick) were excised from the eyes with aid of an Intralase femtosecond laser (Abbot Medical Optics, Santa Ana, CA). The average thickness of the corneal flaps was calculated as a difference between the measurements before and after the excision from the eyes with an ultrasonic Pachymeter (DGH Technology, Exton, PA). The flaps were washed with distilled water and dried in a vacuum until the weight change became less than 10% (Rotary vane vacuum pump RV3 A652-01-903, BOC Edwards, West Sussex, UK). […] Papain digests were diluted 0.5 times with 1×BBBS and fluorescence of the solutions was measured with excitation of 360 nm in a QM-40 Spectrofluorometer (Photon Technology Int., London, Ontario, Canada). The fluorescence of the papain buffer was taken into account by measuring fluorescence in the absence of tissue and subtracting this value from the fluorescence of the samples. […]
# [3] = in riboflavin solution, pig eyes
Compound,HLB number [1],corrosion and damage to the epithelium ([2]; corneal epithelium),"enhancing permeability and generating cross-linking activity, compared with other surfactants [2, 3]","enhancing permeability in the epithelium and generating cross-linking activity, compared with BAC [2, 3]"
CCCCCCCCCc1ccc(OCCOCCOCCOCCOCCOCCOCCOCCOCCO)cc1 [IGEPAL CO-630],13,,,
Polyoxyethylene (9) lauryl ether [Polidocanol],,do not cause damage to the epithelium; also recorded: less corrosive and damaging to the epithelium than BAC,more effective than many other surfactants,far more effective and efficient than BAC
